Laboratory results: US5096929A, “2-amino-1,2,3,4-tetrahydronaphthalene derivatives with cardiovascular activity, process for their preparation and pharmaceutical compositions containing them” (Chiesi Farmaceutici S.p.A., priority 1989, dated 1992)
Where a name gives a salt, the structure may show the parent alone. Read-outs that look alike come from different tables or passages of the source.

How the values were obtained:
[1] = Evaluation of acute toxicities, mouse; details: in vivo, male, read-out: Acute toxicity mean LD50
From the text: (§1) Evaluation of acute toxicities

[2] = system: histaminergic H2 receptors; experiment: Mechanism of cardiostimulant action: histaminergic H2 receptors; details: mechanism study
From the text: (§2) The mechanism of the inotropic activity of CHF 1255 has been studied in a series of other tests.
(§3) Studies have excluded the possibility that the cardiostimulant action of the compound is due to catecholamines release, to the stimulation of alpha-adrenergic cardiac receptors, or to the stimulation of histaminergic H1 and H2 receptors.

[3] = system: beta-2 adrenergic receptors; experiment: Isolated guinea-pig trachea: interactions with beta-2 adrenergic receptors (relaxation of carbachol contraction); details: inferred from selective beta-1 agonism
rabbit isolated aorta = experiment: Rabbit isolated aorta, inhibition of norepinephrine dose-response curve
[4] = Evaluation of acute toxicities, rat; details: in vivo, male/female, read-out: Acute toxicity mean LD50
From the text: as §1

[5] = system: isolated rat right atrium; experiment: Isolated rat right atrium: chronotropic activity (frequency); details: for EC50 / Emax: Rattus norvegicus; for EC50: read-out: EC50, right atrium (frequency)
Experimental: (§4) The inotropic and chronotropic effects of compound (Ia) of the invention were determined in vitro using, respectively, isolated rat left atrium and right atrium.
Right atrium:chronotrpic activity
The preparation was prepared in the same way and under the same conditions as described above, but was not subjected to electric stimulation. Frequency was monitored by a cardiotachograph.
(§5) The results were expressed as the percentage of the response obtained with a maximal dose ([…]) of isoproterenol which was determined at the beginning of the test. In Table 1 the potency (EC50=effective concentration inducing the 50% of the maximal effect) and the relative intrinsic activity (expressed as α and compared with that of isoproterenol, taken=1) are shown.
(§6) The effects of the compounds were evaluated in rat isolated atria according to the previously described method.
(§7) Table 3. Potency (EC50) and intrinsic activity (α;isoproterenol=1) on the isolated rat left atrium (Inotropic activity) and right atrium (chronotropic activity).

[6] = target: T1, beta-2 adrenergic receptors (Cavia porcellus, UniProt Q8K4Z4); experiment: Isolated guinea-pig trachea: interactions with beta-2 adrenergic receptors (relaxation of carbachol contraction); details: for EC50: carbachol 3×10^-7 M
T1 construct: Trachea strips were isolated and prepared according to the method described by Emerson J and Machay D; from tissue; host or cells: guinea-pig isolated trachea strips
T1 sequence (Q8K4Z4 whole entry): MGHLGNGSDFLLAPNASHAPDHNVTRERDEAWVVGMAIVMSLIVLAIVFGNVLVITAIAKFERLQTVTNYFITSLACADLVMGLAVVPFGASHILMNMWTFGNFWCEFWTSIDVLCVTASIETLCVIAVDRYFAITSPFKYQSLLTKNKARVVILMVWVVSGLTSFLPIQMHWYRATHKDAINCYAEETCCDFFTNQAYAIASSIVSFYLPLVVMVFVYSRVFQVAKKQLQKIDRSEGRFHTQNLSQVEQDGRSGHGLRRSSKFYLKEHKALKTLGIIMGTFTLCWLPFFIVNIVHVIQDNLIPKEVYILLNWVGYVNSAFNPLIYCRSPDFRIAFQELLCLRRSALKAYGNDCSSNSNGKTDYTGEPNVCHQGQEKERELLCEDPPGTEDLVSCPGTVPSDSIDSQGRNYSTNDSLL
Experimental: The selectivity of this interaction has been studied by evaluating the effects on beta-2 adrenergic receptors, in the guinea-pig isolated trachea, using CHF 1026 as reference compound.
Isolated guinea-pig trachea: interactions with beta-2 adrenergic receptors
Trachea strips were isolated and prepared according to the method described by Emerson J and Machay D in J Pharm Pharmacol 1979, 31, 798, immersed in Krebs-Henseleit solution (37° C., 95% O2 +5% CO2), subjected to an initial tension of 1 g and contracted with carbachol (3×10^-7 M).
Dose-response curves of CHF 1255 and CHF 1026 were recorded in the absence and in the presence of 10^-6 M propranolol, used as antagonist and added to the bath before the stimulation with carbachol.
The obtained results are shown in Table 2, expressed as potency (EC50 calculated from t he dose--response curve) and intrinsic activity (α, isoproternol=1).

[7] = system: histaminergic H1 receptors; experiment: Mechanism of cardiostimulant action: histaminergic H1 receptors; details: mechanism study
From the text: as §2, §3

isolated rat left atrium = experiment: Isolated rat left atrium: inotropic activity (force); details: for EC50 / Emax: Rattus norvegicus; for EC50: read-out: EC50, left atrium (force)
Experimental: as §4
Left atrium:inotrocic activity
The atria were subjected to a 0.5 g starting tension and suspended in a bath containing aerated Krebs-Henseleit j solution with 95% O2 and […] kept at 32.C. The preparation was stimulated at a 4 Hz frequency with pulses during 5 msec each. The contraction strength was detected by an isometric transducer and recorded on a microndynamometer.
as §5, §6, §7

[8] = system: alpha-adrenergic cardiac receptors; experiment: Mechanism of cardiostimulant action: alpha-adrenergic cardiac receptors; details: mechanism study
From the text: as §2, §3

[9] = system: arterial rat hind quarter; experiment: Rat perfused hind quarter; vasodilating action; details: for Emax: Rattus norvegicus, 100% = complete reduction
Experimental: Rat perfused hind quarter; vasodilating action
The vasodilating effect of CHF 1255 has been evaluated in the arterial rat hind quarter perfused with Krebs-Henseleit solution at constant flow.
The increase of arterial resistance was induced by K^+ -enriched solution (40 mM), norepinephrine (5×10^-6 M) and serotonin (5×10^-7 M).
Papaverine and prazosin, powerful α-blocker vasodilator, were used as reference compounds.
ED40 =dose (moles) decreasing of 40% the contraction induced by the agonist. 100% was considered as the complete recduction of contraction.

[10] = system: beta-1 adrenergic receptors; experiment: Isolated rat left atrium: interactions with beta-adrenergic receptors (atenolol antagonism)
Experimental: Isolated rat left atrium: interactions with beta-adrenercic receptors.
The affinity for beta-1 adrenergic receptors has been evaluated in the rat left atrium as previously described.
In this test, dose-response curves of CHF 1255 were recorded in the absence and in the presence of increasing concentrations (10^-8 to 3×10^-7 M) of the selective beta-1 blocker atenolol.

phosphodiesterase = experiment: Mechanism of cardiostimulant action: phosphodiesterase inhibition; details: mechanism study
From the text: as §2, §3

catecholamines release = experiment: Mechanism of cardiostimulant action: catecholamines release; details: mechanism study
From the text: as §2, §3

Compound: COc1ccc2c(c1OC)CCC(N[C@@H](C)[C@H](O)c1ccc(O)cc1)C2 (relative stereo) [CHF 1255, Erythro-5,6-Dimethoxy-2-[2-(4-hydroxyphenyl)-2-hydroxy-1-mehylethylamino]1,2,3,4-tetrahydronaphthalene hydrochloride]
- LD50 ([1]; iv, i.v.): 65 mg/kg
- LD50 ([1]; po, os): 325 mg/kg
- Contribution of histaminergic H2 receptor stimulation to cardiostimulant action [2]: excluded
- Tachycardic and arrhythmogenic activity due to stimulation of beta-2 receptors [3]: no tachycardic and arrhythmogenic activity
- α-blocking activity in rabbit isolated aorta (rabbit isolated aorta): competitive inhibition of the noprepinephrine dose--response curve
- LD50 ([4]; iv, i.v.): 59 mg/kg
- LD50 ([4]; po, os): 1270 mg/kg
- EC50 ([5]; Table 3, chronotropic activity, rat right atrium): 1.32 µM
- EC50 ([5]; Table I, isolated rat right atrium, confidence limits in parentheses): 1.3 µM
- Emax ([5]; Table 3, isoproterenol=1, read-out: α, right atrium (frequency)): 160%
- Emax ([5]; Table I, isoproterenol taken=1, confidence limits in parentheses, read-out: α (intrinsic activity), right atrium (frequency)): 55%
- Chronotropic efficacy compared with xamoterol ([5]; Table 3 comparison): remarkably lower than that of xamoterol
- Effect of propranolol on dose-response curve ([6]; 10^-6 M propranolol): remain unchanged
- Emax ([6]; guinea pig, isoproterenol=1, without propranolol, read-out: α in absence of propranolol): 94%
- Stimulation of beta-2 adrenergic receptors (in words) ([6]; guinea-pig trachea): does not stimulate beta-2 adrenergic receptors
- EC50 ([6]; guinea-pig trachea, with 10^-6 M propranolol, read-out: EC50 in presence of propranolol): 4.6 µM
- EC50 ([6]; guinea-pig trachea, without propranolol, read-out: EC50 in absence of propranolol): 3.4 µM
- α in presence of propranolol ([6]; isoproterenol=1, with 10^-6 M propranolol): 0.72
- Contribution of histaminergic H1 receptor stimulation to cardiostimulant action [7]: excluded
- EC50 (isolated rat left atrium; Table 3, inotropic activity, rat left atrium): 3.01 µM
- EC50 (isolated rat left atrium; Table I, isolated rat left atrium, 4 Hz stimulation, confidence limits in parentheses): 3 µM
- Emax (isolated rat left atrium; Table 3, isoproterenol=1, read-out: α, left atrium (force)): 60%
- Emax (isolated rat left atrium; Table I, isoproterenol taken=1, confidence limits in parentheses, read-out: α (intrinsic activity), left atrium (force)): 60%
- Cardiostimulating potency compared with dopamine and CHF 1026 (isolated rat left atrium; Table 1 comparison): potency comparable to those of dopamine and of CHF 1026
- Intrinsic activity / type of agonism (in words) (isolated rat left atrium; beta-1 adrenergic receptors): partial agonist of beta-1 adrenergic receptors
- Potency ratio vs amrinone (times higher) (isolated rat left atrium; increase of contraction force, 50% of maximum effect, higher than amrinone): about 10 times
- Potency ratio vs xamoterol (times lower) (isolated rat left atrium; increase of contraction force, 50% of maximum effect, lower than xamoterol): about 300 times
- Contribution of alpha-adrenergic cardiac receptor stimulation to cardiostimulant action [8]: excluded
- Activity against contraction by the different agents (in words) ([9]; K+, norepinephrine, serotonin): particularly active on the norepinephrine induced contraction
- Emax ([9]; K+ 40 mM, read-out: α (efficacy), K+ induced contraction): 46%
- Emax ([9]; norepinephrine 5×10^-6 M, read-out: α (efficacy), norepinephrine induced contraction): 94%
- Emax ([9]; serotonin 5×10^-7 M, read-out: α (efficacy), 5-HT induced contraction): 60%
- ED40, K+ induced contraction ([9]; dose decreasing contraction by 40%, K+ 40 mM): 1.5e-06 mol
- ED40, norepinephrine induced contraction ([9]; dose decreasing contraction by 40%, norepinephrine 5×10^-6 M): 1.2e-08 mol
- ED40, 5-HT induced contraction ([9]; dose decreasing contraction by 40%, serotonin 5×10^-7 M): 6.5e-07 mol
- Shift of dose-response curve by beta-1 blocker atenolol ([10]; atenolol 10^-8 to 3×10^-7 M): shifted the dose-responsive curve of CHF 1255 to the right in a dose-dependent way
- Receptor mediating the inotropic activity ([10]; mechanism study): due to the stimulation of beta-1 adrenergic receptors
- Contribution of phosphodiesterase inhibition to cardiostimulant activity (phosphodiesterase): not due to phosphodiesterase inhibition
- Contribution of catecholamines release to cardiostimulant action (catecholamines release): excluded
